Measured values as given in patent US9549921B2, “Heterocyclic compounds and methods of use thereof for the treatment of hepatitis C” (priority 2014, dated 2017).
Where two headings read alike, the source gives them in different places.

What was measured:
HCV replicon genotype 1a = assay: HCV replicon assay, genotype 1a (cell ELISA for NS3/4A); type: cell-based, hepatitis C virus
Method: (§1) The HCV NS5B inhibitory activity of the present compounds may be tested using assays known in the art. The HCV NS5B polymerase inhibitors described herein have activities in a genotype 1b replicon assay as described in the Examples. The assay is performed by incubating a replicon harboring cell-line in the presence of inhibitor for a set period of time and measuring the effect of the inhibitor on HCV replicon replication either directly by quantifying replicon RNA level, or indirectly by measuring enzymatic activity of a co-encoded reporter enzyme such as luciferase or β-lactamase. By performing a series of such measurements at different inhibitor concentrations, the effective inhibitory concentration of the inhibitor (EC50 or EC90) is determined. See Jan M. Vrolijk et al., A replicons-based bioassay for the measurement of interferons in patients with chronic hepatitis C, 110 J. VIROLOGICAL METHODS 201 (2003). Such assays may also be run in an automated format for high through-put screening. See Paul Zuck et al., A cell-based β-lactamase reporter gene assay for the identification of inhibitors of hepatitis C virus replication, 334 ANALYTICAL BIOCHEMISTRY 344 (2004).
(§2) Measurement of inhibition by compounds was performed using the HCV replicon system. Several different replicons encoding different HCV genotypes or mutations were used. In addition, potency measurements were made using different formats of the replicon assay, including different ways of measurements and different plating formats. See Jan M. Vrolijk et al., A replicons-based bioassay for the measurement of interferons in patients with chronic hepatitis C, 110 J. VIROLOGICAL METHODS 201 (2003); Steven S. Carroll et al., Inhibition of Hepatitis C Virus RNA Replication by 2′-Modified Nucleoside Analogs, 278(14) J. BIOLOGICAL CHEMISTRY 11979 (2003). However, the underlying principles are common to all of these determinations, and are outlined below.
(§3) Stable neomycin phosphotransferase encoding replicons-harboring cell lines were used, so all cell lines were maintained under G418 selection prior to the assay. Potency was deteremined using a cell ELISA assay with an antibody to the replicons encoded NS3/4a protease. See Caterina Trozzi et al., In Vitro Selection and Characterization of Hepatitis C Virus Serine Protease Variants Resistant to an Active-Site Peptide Inhibitor, 77(6) J. Virol. 3669 (2003). To initiate an assay, replicon cells were plated in the presence of a dilution series of test compound in the absence of G418. Typically, the assays were performed in a 96-well plate formate for manual operation, or a 384-well plate format for automated assay. Replicon cells and compound were incubated for 96 hours. At the end of the assay, cells were washed free of media and compound, and the cells were then lysed. RNA was quantified indirectly through detection of replicon-encoded NS3/4A protein levels, through an ELISA-based assay with an antibody specific for NS3/4A. IC50 determinations were calculated as a percentage of a DMSO control by fitting the data to a four-parameter fit function and the data obtained is provided in the table below.
(§4) Data for selected compounds of the present invention was obtained for genotypes 1a and 1b using this method and is provided in the table below: […]

HCV replicon genotype 1b = assay: HCV replicon assay, genotype 1b (cell ELISA for NS3/4A); type: cell-based, hepatitis C virus
Method: as §1, §2, §3, §4

[1] = Hepatitis C virus, 96 h, read-out: 1a IC50 (nM), HCV genotype 1a replicon cells, 96 hours incubation, NS3/4A ELISA readout, % of DMSO control
[2] = Hepatitis C virus, 96 h, read-out: 1b IC50 (nM), HCV genotype 1b replicon cells, 96 hours incubation, NS3/4A ELISA readout, % of DMSO control
[3] = read-out: 1a IC50, HCV genotype 1a replicon cells, 96 hours incubation, NS3/4A ELISA readout, % of DMSO control
[4] = read-out: 1b IC50, HCV genotype 1b replicon cells, 96 hours incubation, NS3/4A ELISA readout, % of DMSO control

Compound	IC50 (HCV replicon genotype 1a; [1])	IC50 (HCV replicon genotype 1b; [2])	IC50 (HCV replicon genotype 1a; [3])	IC50 (HCV replicon genotype 1b; [4])
CNC(=O)c1c(-c2ccc(F)cc2)oc2cc(N(C)S(C)(=O)=O)c(C3CC(c4nc5c(F)cccc5o4)CN(C)C3)cc12 (stereo not drawn) [Example 1, 5-(5-(4-fluorobenzo[d]oxazol-2-yl)-1-methylpiperidin-3-yl)-2-(4-fluorophenyl)-N-methyl-6-(N-methylmethylsulfonamido)benzofuran-3-carboxamide]	56.9 nM	34.3 nM	–	–
CNC(=O)c1c(-c2ccc(F)cc2)oc2cc(N(C)S(C)(=O)=O)c(C3CNCC(c4cc5c(F)cccc5[nH]4)N3)cc12 (stereo not drawn) [Example 13, 5-(6-(4-fluoro-1H-indol-2-yl)piperazin-2-yl)-2-(4-fluorophenyl)-N-methyl-6-(N-methylmethylsulfonamido)benzofuran-3-carboxamide]	140 nM	165 nM	–	–
CNC(=O)c1c(-c2ccc(F)cc2)oc2cc(N(C)S(C)(=O)=O)c([C@@H]3CCCN(C(=O)c4nc5ccc(F)cc5s4)C3)cc12 [Example 75, 5-{1-[(6-fluoro-1,3-benzothiazol-2-yl)carbonyl]piperidin-3-yl}-2-(4-fluorophenyl)-N-methyl-6-[methyl(methylsulfonyl)amino]-1-benzofuran-3-carboxamide]	72.3 nM	12 nM	–	–
CNC(=O)c1c(-c2ccc(F)cc2)oc2cc(N(C)S(C)(=O)=O)c([C@H]3CCCN(C(=O)c4cn5cc(Cl)cc(N)c5n4)C3)cc12 [Example 104, 5-{(3R)-1-[(8-amino-6-chloroimidazo[1,2-a]pyridin-2-yl)carbonyl]piperidin-3-yl}-2-(4-fluorophenyl)-N-methyl-6-[methyl(methylsulfonyl)amino]-1-benzofuran-3-carboxamide]	284 nM	136 nM	–	–
CNC(=O)c1c(-c2ccc(F)cc2)oc2cc(N(C)S(C)(=O)=O)c([C@H]3CCCN(C(=O)c4cc5cccc(C(F)(F)F)c5[nH]4)C3)cc12 [Example 40, (R)-2-(4-fluorophenyl)-N-methyl-6-(N-methylmethylsulfonamido)-5-(1-(7-(trifluoromethyl)-1H-indole-2-carbonyl)piperidin-3-yl)benzofuran-3-carboxamide]	142 nM	27.6 nM	–	–
CNC(=O)c1c(-c2ccc(F)cc2)oc2cc(N(C)S(C)(=O)=O)c([C@@H]3CCCN(C(=O)C4CC4c4ccccn4)C3)cc12 (stereo partly drawn) [Example 60, 2-(4-fluorophenyl)-N-methyl-6-[methyl(methylsulfonyl)amino]-5-{1-[(2-pyridin-2-ylcyclopropyl)carbonyl]piperidin-3-yl}-1-benzofuran-3-carboxamide]	–	–	116 nM	40.3 nM
CNC(=O)c1c(-c2ccc(F)cc2)oc2cc(N(C)S(C)(=O)=O)c([C@H]3CCCN(S(=O)(=O)Cc4ccccn4)C3)cc12 [Example 139, 2-(4-fluorophenyl)-N-methyl-6-[methyl(methylsulfonyl)amino]-5-{(3R)-1-[(pyridin-2-ylmethyl)sulfonyl]piperidin-3-yl}-1-benzofuran-3-carboxamide]	35 nM	21.1 nM	–	–
CNC(=O)c1c(-c2ccc(F)cc2)oc2cc(N(C)S(C)(=O)=O)c([C@H]3CCCN(C(=O)c4nc5ccccc5[nH]4)C3)cc12 [Example 87, 5-[(3R)-1-(1H-benzimidazol-2-ylcarbonyl)piperidin-3-yl]-2-(4-fluorophenyl)-N-methyl-6-[methyl(methylsulfonyl)amino]-1-benzofuran-3-carboxamide]	267 nM	112 nM	–	–
CNC(=O)c1c(-c2ccc(F)cc2)oc2cc(N(C)S(C)(=O)=O)c([C@@H]3CCCN(S(=O)(=O)c4cnc5c(c4)OCCN5C)C3)cc12 [Example 127, 2-(4-fluorophenyl)-N-methyl-5-{(3S)-1-[(4-methyl-3,4-dihydro-2H-pyrido[3,2-b][1,4]oxazin-7-yl)sulfonyl]piperidin-3-yl}-6-[methyl(methylsulfonyl)amino]-1-benzofuran-3-carboxamide]	90.2 nM	32.4 nM	–	–
CNC(=O)c1c(-c2ccc(F)cc2)oc2cc(N(C)S(C)(=O)=O)c([C@@H]3CCCN(C(=O)c4cc5cccnc5[nH]4)C3)cc12 (stereo in doubt) [Example 66, 2-(4-fluorophenyl)-N-methyl-6-[methyl(methylsulfonyl)amino]-5-[1-(1H-pyrrolo[2,3-b]pyridin-2-ylcarbonyl)piperidin-3-yl]-1-benzofuran-3-carboxamide]	92.6 nM	21.2 nM	–	–
CNC(=O)c1c(-c2ccc(F)cc2)oc2cc(N(C)S(C)(=O)=O)c([C@@H]3CCCN(C(=O)c4nc5ccccc5s4)C3)cc12 [Example 69, 5-[1-(1,3-benzothiazol-2-ylcarbonyl)piperidin-3-yl]-2-(4-fluorophenyl)-N-methyl-6-[methyl(methylsulfonyl)amino]-1-benzofuran-3-carboxamide]	74.4 nM	22.8 nM	–	–
CNC(=O)c1c(-c2ccc(F)cc2)oc2cc(N(C)S(C)(=O)=O)c([C@@H]3CCCN(S(=O)(=O)Cc4ccccn4)C3)cc12 [Example 123, 2-(4-fluorophenyl)-N-methyl-6-[methyl(methylsulfonyl)amino]-5-{(3S)-1-[(pyridin-2-ylmethyl)sulfonyl]piperidin-3-yl}-1-benzofuran-3-carboxamide]	106 nM	29.8 nM	–	–
CNC(=O)c1c(-c2ccc(F)cc2)oc2cc(N(C)S(C)(=O)=O)c([C@@H]3CCCN(C(=O)[C@H](N)c4ccccc4F)C3)cc12 (single isomer, unassigned) [Example 30]	–	–	122 nM	215 nM
CNC(=O)c1c(-c2ccc(F)cc2)oc2cc(N(C)S(C)(=O)=O)c([C@H]3CCCN(C(=O)c4ccn5nncc5c4)C3)cc12 [Example 105, 2-(4-fluorophenyl)-N-methyl-6-[methyl(methylsulfonyl)amino]-5-[(3R)-1-([1,2,3]triazolo[1,5-a]pyridin-5-ylcarbonyl)piperidin-3-yl]-1-benzofuran-3-carboxamide]	347 nM	219 nM	–	–
CNC(=O)c1c(-c2ccc(F)cc2)oc2cc(N(C)S(C)(=O)=O)c([C@@H]3CCCN(S(=O)(=O)c4ccccc4C)C3)cc12 [Example 111, 2-(4-fluorophenyl)-N-methyl-6-[methyl(methylsulfonyl)amino]-5-{(3S)-1-[(2-methylphenyl)sulfonyl]piperidin-3-yl}-1-benzofuran-3-carboxamide]	68.1 nM	17.2 nM	–	–
CNC(=O)c1c(-c2ccc(F)cc2)oc2cc(N(C)S(C)(=O)=O)c([C@@H]3CCCN(S(=O)(=O)c4ccc5c(c4)CC(=O)N5)C3)cc12 [Example 122, 2-(4-fluorophenyl)-N-methyl-6-[methyl(methylsulfonyl)amino]-5-{(3S)-1-[(2-oxo-2,3-dihydro-1H-indol-5-yl)sulfonyl]piperidin-3-yl}-1-benzofuran-3-carboxamide]	78.8 nM	22.1 nM	–	–
CNC(=O)c1c(-c2ccc(F)cc2)oc2cc(N(C)S(C)(=O)=O)c([C@H]3CCCN(C(=O)c4cn5c(Cl)cccc5n4)C3)cc12 [Example 107, 5-{(3R)-1-[(5-chloroimidazo[1,2-a]pyridin-2-yl)carbonyl]piperidin-3-yl}-2-(4-fluorophenyl)-N-methyl-6-[methyl(methylsulfonyl)amino]-1-benzofuran-3-carboxamide]	389 nM	116 nM	–	–
CNC(=O)c1c(-c2ccc(F)cc2)oc2cc(N(C)S(C)(=O)=O)c(C3CCCN(C(=O)[C@H](NC(=O)OC(C)(C)C)c4ccccc4F)C3)cc12 (single isomer, unassigned) [Example 28]	–	–	23.9 nM	21.4 nM
